Results: PMC9220127, “Reactive Human Plasma Glutathione Peroxidase Mutant with Diselenide Bond Succeeds in Tetramer Formation” (Antioxidants, 2022)

Target: T1, Sec−hGPx3 (human plasma glutathione peroxidase, GPx3) (Homo sapiens, UniProt P22352)
T1 construct: mature form without signal peptide (nucleotides 1-72 removed), Sec49 inserted at UAG with tRNA-UTuT6, E. coli C321.ΔA.exp, Ni-NTA purified, unglycosylated, about 25 kDa; starts QEKSKMDCHGGIS
T1 sequence (P22352 25-226): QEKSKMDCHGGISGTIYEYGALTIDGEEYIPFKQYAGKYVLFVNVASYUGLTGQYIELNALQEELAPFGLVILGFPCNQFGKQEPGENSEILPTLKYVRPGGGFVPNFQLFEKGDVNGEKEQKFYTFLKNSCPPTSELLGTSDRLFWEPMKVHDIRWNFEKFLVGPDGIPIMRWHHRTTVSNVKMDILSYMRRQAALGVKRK
Experiment: glutathione reductase-coupled NADPH oxidation at […] nm
Type: biochemical
Conditions: 60 μM t-BuOOH, 1 mM GSH, 0.25 mM NADPH, 1 mM EDTA, pH 7.4, 37 °C; non-tetrameric recombinant enzyme

CC(C)(C)OO [t−BuOOH]
glutathione reductase-coupled NADPH oxidation at 340 nm: GR−coupled assay with H2O2 or t−BuOOH as substrates (Figure 1B), which revealed significant GPx activity
